Measured values taken from PubChem BioAssay (NCI).
“And” between values parts separate entries of the source, which are not always exact repeats. Identical values can stand only once.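 Briefly, cells in 96-well plates were exposed to five compound concentrations for 48 h, and endpoints were estimated by linear interpolation. The concentration for 50% growth inhibition is given as GI50. TGI denotes the concentration required for complete inhibition of growth.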

How the values were obtained:
Assay in all cases: growth of human tumour cells (NCI), 48 h
[1] = system: OVCAR-3 ovarian
[2] = system: M19-MEL melanoma
[3] = system: OVCAR-8 ovarian
[4] = system: SK-MEL-28 melanoma
[5] = system: M14 melanoma
[6] = system: NCI-H226 lung
[7] = system: SK-OV-3 ovarian
[8] = system: HCT-15 colon
[9] = system: DMS 273 small cell lung
[10] = system: NCI/ADR-RES ovarian

Compound | TGI [1] | TGI [2] [µM] | TGI [3] | TGI [4] | TGI [5] | TGI [6] | TGI [7] [µM] | TGI [8] | TGI [9] [µM] | GI50 [1] [µM] | GI50 [8] [µM] | GI50 [3] [µM] | GI50 [4] [µM] | GI50 [5] [µM] | GI50 [6] [µM] | GI50 [7] [µM] | GI50 [10] [µM] | TGI [10] [µM] | GI50 [2] [µM] | GI50 [9] [µM]
Cc1cccc(C)c1NC(=O)C(=O)C(C(=O)c1ccccc1-c1ccccc1)C1OC(=O)c2ccccc21 (stereo not given) | 38 µM | 34.7 | > 100 µM | 61.4 µM | 29.3 µM | 30.3 µM | 87.6 | – | – | – | – | – | – | – | – | – | – | – | – | –
COc1cc(C=O)c(-c2cc(OC)c(OC)cc2C=O)cc1OC | > 100 µM | > 100 | > 100 µM | > 100 µM | > 100 µM | > 100 µM | > 100 | > 100 µM | > 100 | – | – | – | – | – | – | – | – | – | – | –
N#CC(C(=O)C(=O)Nc1ccc(Cl)cc1)c1ccccc1 (stereo not given) | > 100 µM | > 100 | – | > 100 µM | > 100 µM | > 100 µM | > 100 | > 100 µM | > 100 | – | – | – | – | – | – | – | – | – | – | –
S=c1[nH]c(=S)c2nnn(-c3ccccc3)c2[nH]1 | > 100 µM | > 100 | > 100 µM | > 100 µM | > 100 µM | > 100 µM | > 100 | > 100 µM | > 100 | – | – | – | – | – | – | – | – | – | – | –
Cc1nc([N+](=O)[O-])cn1CC(=N)N | > 100 µM | > 100 | > 100 µM | > 100 µM | > 100 µM | > 100 µM | – | > 100 µM | > 100 | – | – | – | – | – | – | – | – | – | – | –
CCC1CCc2c(c(=O)oc3c2cc(OC)c2cccc(OC)c23)C1 (stereo not given) | – | > 100 | > 100 µM | > 100 µM | > 100 µM | > 100 µM | > 100 | > 100 µM | > 100 | – | – | – | – | – | – | – | – | – | – | –
COc1cc2c(OC)cc1CSCc1sc(C)c(c1Br)CSC2 | > 100 µM | > 100 | > 100 µM | > 100 µM | > 100 µM | > 100 µM | > 100 | > 100 µM | > 100 | – | – | – | – | – | – | – | – | – | – | –
Cc1cc(NS(=O)(=O)c2ccc(Nc3c4ccccc4nc4c(C(=O)N5CCN(CCO)CC5)ccc(Cl)c34)cc2)no1 | > 100 µM | > 100 | > 100 µM | > 100 µM | > 100 µM | > 100 µM | > 100 | > 100 µM | > 100 | – | – | – | – | – | – | – | – | – | – | –
CCCN1CN(C(C(=O)N[C@@H]2C(=O)N3C2SC(C)(C)C3C(=O)O)c2ccc(O)cc2)CSC1=S (stereo not given in full) | 72.6 µM | > 100 | > 100 µM | > 100 µM | > 100 µM | – | > 100 | > 100 µM | > 100 | – | – | – | – | – | – | – | – | – | – | –
Cc1ccc(C)c(N=C2NC(=O)C(CC(=O)Nc3ccc(Cl)cc3Cl)S2)c1 (stereo not given) | > 100 µM | > 100 | > 100 µM | > 100 µM | > 100 µM | > 100 µM | > 100 | > 100 µM | > 100 | – | – | – | – | – | – | – | – | – | – | –
Cc1cc(S(=O)(=O)O)c(NC(=O)C(=O)Cc2cc(=O)oc3cc(O)ccc23)cc1Cl | > 100 µM | > 100 | > 100 µM | > 100 µM | > 100 µM | > 100 µM | > 100 | > 100 µM | > 100 | – | – | – | – | – | – | – | – | – | – | –
CCOP(=O)(OCC)OC1C=CC2CCC1C2 (stereo not given) | > 100 µM | – | > 100 µM | > 100 µM | > 100 µM | > 100 µM | > 100 | > 100 µM | > 100 | – | – | – | – | – | – | – | – | – | – | –
O=P1(c2ccccc2)CCCCC1 | > 100 µM | – | > 100 µM | > 100 µM | > 100 µM | > 100 µM | > 100 | > 100 µM | > 100 | – | – | – | – | – | – | – | – | – | – | –
COC(=O)/C=C/c1c(CC=C(C)C)ncn1C | 59 µM | > 100 | > 100 µM | > 100 µM | > 100 µM | > 89.8 µM | > 100 | > 100 µM | > 100 | – | – | – | – | – | – | – | – | – | – | –
CCCO/S(=N\S(=O)(=O)c1ccccc1)c1ccccc1[N+](=O)[O-] (stereo not given) | > 100 µM | > 100 | > 100 µM | > 100 µM | > 100 µM | > 100 µM | > 100 | > 100 µM | > 100 | – | – | – | – | – | – | – | – | – | – | –
COc1cc(OC)c(/C=C/c2c3ccccc3cc[n+]2C)c(OC)c1 | 9.78 µM | – | 12.4 µM | 13.2 µM | 15.4 µM | > 100 µM | > 100 | > 100 µM | – | 1.23 | 24.7 | 2.27 | 2.34 | 2.62 | 2.73 | 3.58 | > 85.5 | > 100 | – | –
CC(=O)Oc1ccccc1C(=O)Nc1ncc([N+](=O)[O-])s1 | 13.1 µM and 36.6 µM | – | 25.1 µM and > 100 µM | 15.2 µM and > 100 µM | 7.23 µM and 55.9 µM | 8.7 µM and 36.7 µM | > 80.3 | 31.3 µM and > 95 µM | – | 2.76 | 2.94 | 2.73 | 2.48 | 2.54 | 2.62 | 3.2 | 2.29 | > 85.2 | – | –
O[C@H](c1cc(C(F)(F)F)nc2c(C(F)(F)F)cccc12)[C@@H]1CCCCN1 | 11.5 µM | – | 14.7 µM | 5.63 µM | 6.69 µM | 22.6 µM | 17.8 | 27 µM | – | 3.38 | 11.9 | 5.11 | 2.29 | 2.53 | 6.72 | 6.11 | 3.09 | 9.49 | – | –
NC(=O)c1cc(S(=O)(=O)Nc2nnc(-c3ccccc3)c(-c3ccccc3)n2)c(SCc2ccccc2)cc1Cl | > 100 µM | – | > 77.5 µM | > 100 µM | > 100 µM | > 69.4 µM | > 100 | > 100 µM | – | > 100 | > 88.3 | > 50.3 | – | > 100 | > 46.9 | > 74.7 | > 100 | > 100 | – | –
O=C(O)c1ccc(OCc2ccccc2)c(Cl)c1 | > 100 µM | – | > 100 µM | > 100 µM | > 100 µM | > 100 µM | > 100 | > 100 µM | – | – | – | – | – | – | – | – | – | > 100 | – | –
COc1c[c]([Hg][O]C(C)=O)c(OC)c(NC(=O)CC(C)=O)[c]1[Hg][O]C(C)=O | > 21.1 µM | 22 | > 19.9 µM | 3.61 µM | 4.56 µM | 42.9 µM | 32.7 | – | 36.7 | – | 3.11 | 6.71 | 1.83 | 2.11 | 19.5 | 18.6 | – | – | 8.85 | 13.6
COc1ccc(-c2ccc(-c3ccc(C(=N)N)s3)s2)cc1 | 0.352 µM | – | 0.5 µM | 0.348 µM | 0.344 µM | 5.15 µM | 4.3 | 0.415 µM | – | 0.194 | 0.195 | 0.219 | 0.187 | 0.18 | 2.06 | 2.14 | 0.416 | 1.6 | – | –
